Molecular target: USP7 (Homo sapiens, UniProt Q93009)
Assay: USP7 inhibitory potency (Table 1)
Format: biochemical

USP7, sequence (Q93009 whole entry): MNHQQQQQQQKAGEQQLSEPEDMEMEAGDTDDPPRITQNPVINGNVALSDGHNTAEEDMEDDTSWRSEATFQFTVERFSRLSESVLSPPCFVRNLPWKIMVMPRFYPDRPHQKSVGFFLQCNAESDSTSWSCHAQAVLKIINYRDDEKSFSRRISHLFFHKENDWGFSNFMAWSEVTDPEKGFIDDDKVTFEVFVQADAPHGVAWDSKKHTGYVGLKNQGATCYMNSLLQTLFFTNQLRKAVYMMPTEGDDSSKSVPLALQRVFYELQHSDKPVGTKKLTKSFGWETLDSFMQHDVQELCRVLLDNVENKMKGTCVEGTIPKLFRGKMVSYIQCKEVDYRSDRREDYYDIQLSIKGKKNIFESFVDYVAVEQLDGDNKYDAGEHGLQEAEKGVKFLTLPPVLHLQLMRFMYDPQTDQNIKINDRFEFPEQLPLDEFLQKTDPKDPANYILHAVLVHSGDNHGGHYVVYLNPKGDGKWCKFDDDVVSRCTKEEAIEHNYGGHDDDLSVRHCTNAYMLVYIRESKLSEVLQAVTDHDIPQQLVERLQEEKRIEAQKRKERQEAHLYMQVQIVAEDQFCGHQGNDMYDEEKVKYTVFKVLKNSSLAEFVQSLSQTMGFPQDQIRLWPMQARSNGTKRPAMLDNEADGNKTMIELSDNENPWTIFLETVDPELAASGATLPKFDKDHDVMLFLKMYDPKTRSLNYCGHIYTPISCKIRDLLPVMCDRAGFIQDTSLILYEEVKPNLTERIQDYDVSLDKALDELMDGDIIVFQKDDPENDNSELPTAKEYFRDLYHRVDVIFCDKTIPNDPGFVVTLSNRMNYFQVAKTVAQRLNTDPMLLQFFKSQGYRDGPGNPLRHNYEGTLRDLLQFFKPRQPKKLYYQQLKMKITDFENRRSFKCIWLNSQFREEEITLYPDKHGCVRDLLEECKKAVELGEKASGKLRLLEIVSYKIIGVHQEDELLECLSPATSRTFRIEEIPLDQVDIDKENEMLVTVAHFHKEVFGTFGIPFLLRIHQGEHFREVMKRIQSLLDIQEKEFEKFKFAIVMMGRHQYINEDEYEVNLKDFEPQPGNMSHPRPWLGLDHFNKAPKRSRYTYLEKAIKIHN

IC50 | SMILES
< 1 µM | O=C([C@H]1Cc2cc(Cl)cc(-c3ccnc4ccsc34)c2O1)N1CCC(N2CCCC2)CC1 [(R)-(5-chloro-7-(thieno[3,2-b]pyridin-7-yl)-2,3-dihydrobenzofuran-2-yl)(4-(pyrrolidin-1-yl)piperidin-1-yl)methanone]
10 to 30 µM | O=C(C1Cc2cc(Cl)cc(-c3ccnc(Cn4cnc5ccccc5c4=O)c3)c2O1)N1CCNCC1 (centres unmarked) [3-((4-(5-chloro-2-(piperazine-1-carbonyl)-2,3-dihydrobenzofuran-7-yl)pyridin-2-yl)methyl)quinazolin-4(3H)-one]
10 to 30 µM | Cc1cnccc1-c1cc(Cl)cc2c1OC(C(=O)N1CCNCC1)C2 (centres unmarked)
1 to 10 µM | Clc1cc2c(c(-c3ccncc3)c1)OC(c1onc3c1CNCC3)C2 (centres unmarked) [3-(5-chloro-7-(pyridin-4-yl)-2,3-dihydrobenzofuran-2-yl)-4,5,6,7-tetrahydroisoxazolo[4,3-c]pyridine]
1 to 10 µM | O=C(C1Cc2cc(Cl)cc(-c3ccnc4[nH]ccc34)c2O1)N1CCC(O)(c2ccccc2F)CC1 (centres unmarked) [(5-chloro-7-(1H-pyrrolo[2,3-b]pyridin-4-yl)-2,3-dihydrobenzofuran-2-yl)(4-(2-fluorophenyl)-4-hydroxypiperidin-1-yl)methanone]
1 to 10 µM | Cn1nc([C@H]2Cc3cc(Cl)cc(-c4ccnc5ccsc45)c3O2)c2c1CCNC2 [(R)-7-(5-chloro-2-(1-methyl-4,5,6,7-tetrahydro-1H-pyrazolo[4,3-c]pyridin-3-yl)-2,3-dihydrobenzofuran-7-yl)thieno[3,2-b]pyridine]
< 1 µM | CCC(O)c1cc2nccc(-c3cc(Cl)cc4c3O[C@@H](c3onc5c3CN(CC)CC5)C4)c2s1 (stereo partly drawn) [1-(7-((R)-5-chloro-2-(5-ethyl-4,5,6,7-tetrahydroisoxazolo[4,3-c]pyridin-3-yl)-2,3-dihydrobenzofuran-7-yl)thieno[3,2-b]pyridin-2-yl)propan-1-ol]
1 to 10 µM | O=C(C1Cc2cc(Cl)cc(-c3ccnc4[nH]ccc34)c2O1)N1CCC(O)(c2cccc3ncccc23)CC1 (centres unmarked) [(5-chloro-7-(1H-pyrrolo[2,3-b]pyridin-4-yl)-2,3-dihydrobenzofuran-2-yl)(4-hydroxy-4-(quinolin-5-yl)piperidin-1-yl)methanone]
< 1 µM | N#Cc1ccc2c(-c3cc(Cl)cc4c3OC(C(=O)N3CCNCC3)C4)ccnc2c1 (centres unmarked) [4-(5-chloro-2-(piperazine-1-carbonyl)-2,3-dihydrobenzofuran-7-yl)quinoline-7-carbonitrile]
1 to 10 µM | O=C(C1Cc2cc(Cl)cc(-c3ccnc4[nH]ccc34)c2O1)N1CCC(N2CCCCC2)CC1 (centres unmarked) [1,4′-bipiperidin-1′-yl(5-chloro-7-(1H-pyrrolo[2,3-b]pyridin-4-yl)-2,3-dihydrobenzofuran-2-yl)methanone]
10 to 30 µM | O=C(C1Cc2cc(Cl)cc(-c3ccnc4[nH]c(C5CC5)cc34)c2O1)N1CCNCC1 (centres unmarked) [(5-chloro-7-(2-cyclopropyl-1H-pyrrolo[2,3-b]pyridin-4-yl)-2,3-dihydrobenzofuran-2-yl)(piperazin-1-yl)methanone]
10 to 30 µM | O=C(C1Cc2cc(Cl)cc(-c3ccnc4c(F)cccc34)c2O1)N1CCNCC1 (centres unmarked) [(5-chloro-7-(8-fluoroquinolin-4-yl)-2,3-dihydrobenzofuran-2-yl)(piperazin-1-yl)methanone]
< 1 µM | CCC(=O)NCc1cc2nccc(-c3cc(Cl)cc4c3O[C@@H](c3onc5c3CNCC5)C4)c2s1 [(R)-N-((7-(5-chloro-2-(4,5,6,7-tetrahydroisoxazolo[4,3-c]pyridin-3-yl)-2,3-dihydrobenzofuran-7-yl)thieno[3,2-b]pyridin-2-yl)methyl)propionamide]
< 1 µM | CN(C)C1CCCN(C(=O)[C@H]2Cc3cc(Cl)cc(-c4ccnc5cc(CO)sc45)c3O2)C1 (stereo partly drawn) [((R)-5-chloro-7-(2-(hydroxymethyl)thieno[3,2-b]pyridin-7-yl)-2,3-dihydrobenzofuran-2-yl)(3-(dimethylamino)piperidin-1-yl)methanone]
< 1 µM | FC(F)(F)CNCc1cc2nccc(-c3cc(Cl)cc4c3O[C@@H](c3onc5c3CNCC5)C4)c2s1 [(R)-N-((7-(5-chloro-2-(4,5,6,7-tetrahydroisoxazolo[4,3-c]pyridin-3-yl)-2,3-dihydrobenzofuran-7-yl)thieno[3,2-b]pyridin-2-yl)methyl)-2,2,2-trifluoroethan-1-amine]
< 1 µM | C[C@@H](c1cc2nccc(-c3cc(Cl)cc4c3O[C@@H](C(=O)N3CCNCC3)C4)c2s1)N1C(=O)CCC1=O [1-((S)-1-(7-((R)-5-chloro-2-(piperazine-1-carbonyl)-2,3-dihydrobenzofuran-7-yl)thieno[3,2-b]pyridin-2-yl)ethyl)pyrrolidine-2,5-dione]
< 1 µM | CCC(O)C1Cc2nccc(-c3cc(Cl)cc4c3O[C@@H](C(=O)N3CCNCC3)C4)c2C1 (stereo partly drawn) [((2R)-5-chloro-7-(6-(1-hydroxypropyl)-6,7-dihydro-5H-cyclopenta[b]pyridin-4-yl)-2,3-dihydrobenzofuran-2-yl)(piperazin-1-yl)methanone]
1 to 10 µM | O=C(C1Cc2cc(Cl)cc(-c3ccnc4ccc(F)cc34)c2O1)N1CCNCC1 (centres unmarked) [(5-chloro-7-(6-fluoroquinolin-4-yl)-2,3-dihydrobenzofuran-2-yl)(piperazin-1-yl)methanone]

IC50 | SMILES
< 1 µM | CC(=O)NCCc1cc2nccc(-c3cc(Cl)cc4c3O[C@@H](C(=O)N3CCNCC3)C4)c2s1 [(R)-N-(2-(7-(5-chloro-2-(piperazine-1-carbonyl)-2,3-dihydrobenzofuran-7-yl)thieno[3,2-b]pyridin-2-yl)ethyl)acetamide]
10 to 30 µM | COc1cccc2c(-c3cc(Cl)cc4c3OC(C(=O)N3CCNCC3)C4)ccnc12 (centres unmarked) [(5-chloro-7-(8-methoxyquinolin-4-yl)-2,3-dihydrobenzofuran-2-yl)(piperazin-1-yl)methanone]
1 to 10 µM | O=C(C1Cc2cc(Cl)cc(-c3ccnc4[nH]ccc34)c2O1)N1CCN(c2cccnc2)CC1 (centres unmarked) [(5-chloro-7-(1H-pyrrolo[2,3-b]pyridin-4-yl)-2,3-dihydrobenzofuran-2-yl)(4-(pyridin-3-yl)piperazin-1-yl)methanone]
< 1 µM | CN1CCN(Cc2cc3nccc(-c4cc(Cl)cc5c4O[C@@H](C(=O)N4CCNCC4)C5)c3s2)C1=O [(R)-1-((7-(5-chloro-2-(piperazine-1-carbonyl)-2,3-dihydrobenzofuran-7-yl)thieno[3,2-b]pyridin-2-yl)methyl)-3-methylimidazolidin-2-one]
< 1 µM | CCC(O)c1cc2nccc(-c3cc(Cl)cc4c3O[C@@H](c3ocnc3CNC)C4)c2s1 (stereo partly drawn) [1-(7-((R)-5-chloro-2-(4-((methylamino)methyl)oxazol-5-yl)-2,3-dihydrobenzofuran-7-yl)thieno[3,2-b]pyridin-2-yl)propan-1-ol]
< 1 µM | Cn1nc2c(c1[C@H]1Cc3cc(Cl)cc(-c4ccnc5cc(CO)sc45)c3O1)CNCC2 [(R)-(7-(5-chloro-2-(2-methyl-4,5,6,7-tetrahydro-2H-pyrazolo[4,3-c]pyridin-3-yl)-2,3-dihydrobenzofuran-7-yl)thieno[3,2-b]pyridin-2-yl)methanol]
< 1 µM | Clc1cc2c(c(-c3ccnc4ccnn34)c1)O[C@@H](c1onc3c1CNCC3)C2 [(R)-3-(5-chloro-7-(pyrazolo[1,5-a]pyrimidin-7-yl)-2,3-dihydrobenzofuran-2-yl)-4,5,6,7-tetrahydroisoxazolo[4,3-c]pyridine]
< 1 µM | Cn1nc2c(c1[C@H]1Cc3cc(Cl)cc(-c4ncnc5cc(CO)oc45)c3O1)CNCC2 [(R)-(4-(5-chloro-2-(2-methyl-4,5,6,7-tetrahydro-2H-pyrazolo [4,3-c]pyridin-3-yl)-2,3-dihydrobenzofuran-7-yl)furo[3,2-d]pyrimidin-6-yl)methanol]
1 to 10 µM | CC1(C(=O)N2CCNCC2)Cc2cc(Cl)cc(-c3ccnc4[nH]ccc34)c2O1 (centres unmarked) [(5-chloro-2-methyl-7-(1H-pyrrolo[2,3-b]pyridin-4-yl)-2,3-dihydrobenzofuran-2-yl)(piperazin-1-yl)methanone]
< 1 µM | O=C([C@H]1Cc2cc(Cl)cc(-c3ccnc4cc(Cn5c(=O)cc[nH]c5=O)sc34)c2O1)N1CCNCC1 [(R)-3-((7-(5-chloro-2-(piperazine-1-carbonyl)-2,3-dihydrobenzofuran-7-yl)thieno[3,2-b]pyridin-2-yl)methyl)pyrimidine-2,4(1H,3H)-dione]
< 1 µM | FC(F)(F)CN1CCc2noc([C@H]3Cc4cc(Cl)cc(-c5ccnc6ccsc56)c4O3)c2C1 [(R)-3-(5-chloro-7-(thieno[3,2-b]pyridin-7-yl)-2,3-dihydrobenzofuran-2-yl)-5-(2,2,2-trifluoroethyl)-4,5,6,7-tetrahydroisoxazolo[4,3-c]pyridine]
1 to 10 µM | O=C(N[C@@H]1CCCNC1)C1Cc2cc(Cl)cc(-c3ccnc4[nH]ccc34)c2O1 (stereo partly drawn) [5-Chloro-N-((R)-piperidin-3-yl)-7-(1H-pyrrolo[2,3-b]pyridin-4-yl)-2,3-dihydrobenzofuran-2-carboxamide]
1 to 10 µM | Cc1c[nH]c2nccc(-c3cc(Cl)cc4c3OC(C(=O)N3CCNCC3)C4)c12 (centres unmarked) [(5-chloro-7-(3-methyl-1H-pyrrolo[2,3-b]pyridin-4-yl)-2,3-dihydrobenzofuran-2-yl)(piperazin-1-yl)methanone]
< 1 µM | CC[C@H](O)c1cc2nccc(-c3cc(Cl)cc4c3O[C@@H](c3onc5c3CNCC5)C4)c2s1 [(S)-1-(7-((R)-5-chloro-2-(4,5,6,7-tetrahydroisoxazolo[4,3-c]pyridin-3-yl)-2,3-dihydrobenzofuran-7-yl)thieno[3,2-b]pyridin-2-yl)propan-1-ol]
< 1 µM | CCC(O)c1cc2nccc(-c3cc(Cl)cc4c3O[C@@H](c3ocnc3CN(C)C)C4)c2s1 (stereo partly drawn) [1-(7-((R)-5-chloro-2-(4-((dimethylamino)methyl)oxazol-5-yl)-2,3-dihydrobenzofuran-7-yl)thieno[3,2-b]pyridin-2-yl)propan-1-ol]
1 to 10 µM | CNC(=O)c1ccc2c(-c3cc(Cl)cc4c3OC(C(=O)N3CCNCC3)C4)ccnc2c1 (centres unmarked) [4-(5-chloro-2-(piperazine-1-carbonyl)-2,3-dihydrobenzofuran-7-yl)-N-methylquinoline-7-carboxamide]
< 1 µM | O=C(C1Cc2cc(Cl)cc(-c3ccnc4[nH]ccc34)c2O1)N1CCC(O)(c2cccnc2)CC1 (centres unmarked) [(5-chloro-7-(1H-pyrrolo[2,3-b]pyridin-4-yl)-2,3-dihydrobenzofuran-2-yl)(4-hydroxy-4-(pyridin-3-yl)piperidin-1-yl)methanone]

— patent US20210317134A1, “UBIQUITIN-SPECIFIC-PROCESSING PROTEASE 7 (USP7) MODULATORS AND USES THEREOF” (RAPT THERAPEUTICS, INC., priority 2019, published 2021)
